The values below come from article PMC11983575, “Study on the synthesis and biological activity of kojic acid triazol thiosemicarbazide Schiff base derivatives” (Journal of Enzyme Inhibition and Medicinal Chemistry, 2025).

Assay [1] in a line: DPPH free radical scavenging activity assay. As to conditions: DPPH 150 μM, 30 min, 517 nm; read-out: DPPH/IC50 (μM) ± SD. Here is the method:
The anti-oxidation effect on DPPH radical was determined by a slightly modified version of a previously described DPPH radical scavenging assay. Reaction mixtures consisted of 100 μl of DPPH (150 μM), 20 μl of increasing concentration of test compounds and the volume was adjusted to 200 μl in each well with DMSO. The assay solution was then incubated at room temperature (25 °C) for 30 min in the dark. After the incubation, absorbance at 517 nm was measured by using UV-2600 spectrophotometer. The experiments were undertaken in triplicate. DMSO was used as a control. Ascorbic acid was used as antioxidant standard for comparison of the activity. The calculation of DPPH radical scavenging activity was followed by this formula: DPPH radical scavenging activity %=absorbance of standard−absorbance of sample/Absorbance of standard×100
Background: The DPPH test is a chemical assay of radical scavenging.

The next assay addresses mushroom tyrosinase (Agaricus bisporus, UniProt C7FF04). The experiment in a line: In vitro mushroom tyrosinase inhibition (L-DOPA substrate). It counts as biochemical. As to conditions: 475 nm, read-out: IC50 (μM) ± SD, inhibitory tyrosinase activity. Here is the method: The mushroom tyrosinase inhibitory activity was determined according to previous described method. Briefly, 168 μl of phosphate buffer (0.1 M, pH 6.8), 10 μl of mushroom tyrosinase (0.5 mg/ml, Sigma Chemical, St. Louis, MO) and 2 μl of the inhibitor solution were placed in the wells of a 96-well micro plate. After pre-incubation for 20 min at 37 °C, 20 μl of 2.0 mg/ml L-DOPA (3,4-dihydroxyphenylalanine, Sigma Chemical, St. Louis, MO) was added and the enzyme activity was measured at 475 nm every 60 s for 180 s in a Microplate Reader (Bio-Rad Laboratories, Inc., Hercules, CA). Kojic acid and phosphate buffer were respectively used as positive and negative control. The extent of inhibition by the test compounds was expressed as the percentage of concentration necessary to achieve 50% inhibition (IC50). The percentage of inhibition was calculated as follows: inhibitory rate (%) = [Ac − At)/Ac] × 100. Ac is the absorbance of the negative control and At is the absorbance of the test compound. Each concentration was analysed in three independent experiments run in triplicate. The IC50 values were determined by the data analysis software GraphPad Prism 8 (La Jolla, CA).
The tyrosinase inhibition measurements of compounds 6a–6x were carried out using L-DOPA as substrate. Kojic acid was selected as a positive control compound. […]. […] Moreover, inhibitory activity of compound with hydroxyl group at papa position is better than the inhibitory activity of compound with hydroxyl group at meta position, and inhibitory activity of compound with hydroxyl group at meta position is better than the inhibitory activity of compound with hydroxyl group at ortho position. […]. […] In addition, with the increase of atomic radius, the inhibitory activity gradually decreases. (3) The inhibitory activity of alkoxy substituted compound is better than that of alkyl substituted compound. (4) Comparing the tyrosinase inhibitory activity of compounds with halogen atom (6b–6d, 6q–6s) and compounds with methyl or methoxy (6e–6f, 6t–6u), when the hydrogen (R^2) was replaced by the methyl (R^2), the inhibitory activity was decreased.

The next assay addresses T1, tyrosinase (Agaricus bisporus, UniProt C7FF04).
T1 construct: purchased Sigma-Aldrich Chemical Co. (Shanghai, China)
The experiment in a line: Fluorescence quenching of tyrosinase (Stern-Volmer). The settings on record: for KSV / Kq: Stern-Volmer. Type of assay: binding. Here is the method:
To investigate fluorescence quenching role of inhibitor to the tyrosinase, fluorescence experiments were carried according to the reported method. To determine the linear concentration range of the fluorescence, compound 6w was first dissolved in DMSO. The concentration of the solution was 10 mM, and then was diluted with sodium phosphate buffer. The ultimate concentration was changed from 0 to 50 μM. A series of 3 ml solutions containing 1.5 ml of tyrosinase solution were added to a centrifuge tube and then accurately mixed with different concentrations of 6w solution range from 0 to 50 μM. Cary Eclipse G9800A fluorescence spectrophotometer (Agilent Technologies Co., Santa Clara, CA) was employed to detect the fluorescence intensity. The excitation wavelength was set to 280 nm, the bath was set as three temperatures (292 K, 298 K, and 304 K) with a scanning wavelength change from 300 to 500 nm. The excitation and emission bandwidths were 5 nm. The final tyrosinase concentration was 0.05 mg/ml.
Fluorescence quenching means that some small molecule compounds bind to protein that can affect the fluorescence intensity of the fluorophore. Therefore, in order to obtain information about conformational changes of enzymes, fluorescence spectroscopy has become a very important research tool. With increasing concentrations of compound 6w, the dramatically decreasing fluorescence intensity of tyrosinase could be found. […] At the same time, there was no significant red shift or blue shift in the fluorescence emission peak of tyrosinase after the addition of compound 6w. […] The quenching of the intrinsic fluorescence provided a direct and clear evidence that the inhibitor 6w was capable of binding to tyrosinase, and the binding of 6w to tyrosinase led to change in the microenvironment around the fluorophore, and the detailed KSV values are summarised Table 2.
Figure 3. (A) Changes in the tyrosinase fluorescence at different concentrations of compound 6w (λex = 280 nm, T = 298 K). The final enzyme concentration was 0.05 mg/ml, and c (compound 6w) = 0 μM, 5 μM, 15 μM, 20 μM, 25 μM, 30 μM, 35 μM, 40 μM, 45 μM, and 50 μM for the curves from top to bottom, respectively. (B) The Stern–Volmer figure of compound 6w and tyrosinase at 292, 298, and 304 K.

T1 sequence (C7FF04 1-392 limits assumed): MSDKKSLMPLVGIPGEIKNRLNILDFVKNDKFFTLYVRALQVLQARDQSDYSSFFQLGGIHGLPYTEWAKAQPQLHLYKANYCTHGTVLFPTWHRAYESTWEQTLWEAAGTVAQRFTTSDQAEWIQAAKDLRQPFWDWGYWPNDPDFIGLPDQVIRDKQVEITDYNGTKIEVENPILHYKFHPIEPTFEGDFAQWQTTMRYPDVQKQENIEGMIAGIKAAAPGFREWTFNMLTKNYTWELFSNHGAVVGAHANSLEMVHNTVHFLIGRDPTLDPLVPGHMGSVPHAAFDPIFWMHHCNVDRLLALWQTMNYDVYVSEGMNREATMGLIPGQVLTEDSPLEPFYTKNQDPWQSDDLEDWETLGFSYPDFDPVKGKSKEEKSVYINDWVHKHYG
Chain of mushroom tyrosinase (C7FF04 1-392): as the sequence (C7FF04 1-392 limits assumed) above

“2-(1-(4-((1-((5-Hydroxy-4-oxo-4H-pyran-2-yl)methyl)-1H-1,2,3-triazol-5-yl)methoxy)phenyl)ethylidene)hydrazinecarbothioamide [Compound 6w]”: the IC50 turned out to be 14.44 ± 0.077 µM in assay [1] and 0.94 ± 0.035 µM on mushroom tyrosinase. The fluorescence quenching mechanism entry on tyrosinase (292, 298 and 304 K) is given as “dynamic quenching”. For the same substance, the KSV on tyrosinase (T 292 K) is listed as 0.03005 L/µmol; on tyrosinase (T 298 K) it was 0.04605 L/µmol; at tyrosinase (T 304 K) it was 0.06529 L/µmol. The results for the Kq on tyrosinase (T 292 K), on tyrosinase (T 298 K) and at tyrosinase (T 304 K) were 3.0052e+13 M⁻¹ s⁻¹, 4.6048e+13 M⁻¹ s⁻¹ and 6.5292e+13 M⁻¹ s⁻¹, respectively.
